Data: PMC5960717 (Frontiers in Microbiology, 2018)
Each block holds one molecule with its values, some of them ahead of it.

Tests used:
ScAlt1 [1] = biological target: T1, ScAlt1 (Saccharomyces cerevisiae, UniProt P52893); assay: UV-visible shift, external Schiff base ([…] nm); assay type: binding; settings: 50 mM KH2PO4, 4 mM MgCl2, PLP, covalent
T1 construct: gene ALT1; N-terminal His-tag (pET-28a), E. coli Rosetta 2 (DE3); theoretical monomer 61 kDa, SEC 147 kDa, dimer
T1 sequence (P52893 81-592): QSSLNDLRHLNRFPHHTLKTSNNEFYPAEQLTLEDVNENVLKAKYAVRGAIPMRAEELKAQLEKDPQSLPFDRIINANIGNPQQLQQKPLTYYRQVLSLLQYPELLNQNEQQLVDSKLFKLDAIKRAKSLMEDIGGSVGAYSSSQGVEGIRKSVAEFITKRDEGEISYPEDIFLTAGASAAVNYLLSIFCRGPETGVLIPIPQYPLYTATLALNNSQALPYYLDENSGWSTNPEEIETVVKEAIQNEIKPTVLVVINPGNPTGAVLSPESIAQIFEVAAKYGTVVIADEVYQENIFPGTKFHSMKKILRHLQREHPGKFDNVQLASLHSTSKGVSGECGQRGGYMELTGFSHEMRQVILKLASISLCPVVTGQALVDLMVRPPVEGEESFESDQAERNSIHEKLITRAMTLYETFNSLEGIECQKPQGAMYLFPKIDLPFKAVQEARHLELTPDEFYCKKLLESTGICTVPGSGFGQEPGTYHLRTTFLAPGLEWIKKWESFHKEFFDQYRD

ScAlt1 [2] = biological target: T1, ScAlt1; assay: intrinsic fluorescence titration ([…] nm); assay type: binding
ScAlt2 = biological target: T2, ScAlt2 (Saccharomyces cerevisiae, UniProt P52892); assay: UV-visible absorption of Schiff base ([…] nm), NaBH4 reduction; assay type: binding; settings: covalent (reversible internal Schiff base, ketoenamine); 50 mM K2HPO4, 4 mM MgCl2, pH 7.5, 100 μM PLP
T2 construct: gene ALT2; N-terminal His-tag (pET-28a), E. coli Rosetta 2 (DE3), 4°C expression; forward primer ATGACAATGACACACCAACAGG (MTMTHQQ); theoretical monomer 58 kDa, SEC 127 kDa, dimer
T2 sequence (P52892 1-507): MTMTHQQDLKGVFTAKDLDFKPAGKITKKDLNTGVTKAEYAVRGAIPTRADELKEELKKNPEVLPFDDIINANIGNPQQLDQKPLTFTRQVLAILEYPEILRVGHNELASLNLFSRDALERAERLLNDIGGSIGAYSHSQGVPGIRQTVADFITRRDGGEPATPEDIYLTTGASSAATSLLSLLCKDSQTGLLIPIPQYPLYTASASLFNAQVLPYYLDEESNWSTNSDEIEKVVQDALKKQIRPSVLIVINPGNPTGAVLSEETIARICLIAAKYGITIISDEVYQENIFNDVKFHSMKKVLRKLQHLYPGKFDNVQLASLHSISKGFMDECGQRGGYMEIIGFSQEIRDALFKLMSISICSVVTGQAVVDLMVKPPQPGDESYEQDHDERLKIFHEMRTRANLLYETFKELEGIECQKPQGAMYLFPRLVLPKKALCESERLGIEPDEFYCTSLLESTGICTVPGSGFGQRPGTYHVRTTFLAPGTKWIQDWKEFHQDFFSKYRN

ScAlt1 [3] = biological target: T1, ScAlt1; assay: UV-visible absorption of Schiff base ([…]-335 and […] nm), NaBH4 reduction; assay type: binding; settings: covalent (reversible internal Schiff base, enolimine and ketoenamine); 50 mM K2HPO4, 4 mM MgCl2, pH 7.5, 100 μM PLP
purified protein [4] = substrate: C[C@H](N)C(=O)O; assay: purified protein; settings: varied alanine 2-15 mM and α-ketoglutarate 0.05-10 mM, 40 μM PLP, pH 7.5, 25°C, ping-pong, Ka here = Michaelis constant
purified protein [5] = substrate: O=C(O)CCC(=O)C(=O)O; assay: purified protein; assay type: biochemical, Saccharomyces cerevisiae; settings: varied alanine 2-15 mM and α-ketoglutarate 0.05-10 mM, 40 μM PLP, pH 7.5, 25°C, ping-pong, Ka here = Michaelis constant, co-substrate alanine
[6] = biological target: the molecule itself; assay: SEC; Superose 6 10/300 GL on an Akta FPLC; mobile phase 50 mM K2HPO4, 4 mM Mg2Cl, pH 7.5; calibrated with Bio-Rad molecular weight standards
[7] = 1 μl of 81 mM stock added to 10 μl protein

Molecule: N[C@@H](Cc1cnc[nH]1)C(=O)O [histidine]
UV-visible shift, external Schiff base (325 nm) (ScAlt1 [1]; 1 μl of 20 mM stock added to 10 μl protein): ScAlt1 could form external Schiff base with glutamate, serine, cysteine, histidine, and aspartic acid

Kd (ScAlt1 [2]): 1000 ± 100 µM
Molecule: C[C@H](N)C(=O)O [alanine]

Molecule: N[C@@H](CS)C(=O)O [cysteine]
UV-visible shift, external Schiff base (325 nm) (ScAlt1 [1]; 1 μl of 238 mM stock added to 10 μl protein): ScAlt1 could form external Schiff base with glutamate, serine, cysteine, histidine, and aspartic acid

Molecule: N[C@@H](CCC(=O)O)C(=O)O [glutamate]
UV-visible shift, external Schiff base (325 nm) (ScAlt1 [1]; [7]): ScAlt1 could form external Schiff base with glutamate, serine, cysteine, histidine, and aspartic acid

Molecule: Cc1ncc(COP(=O)(O)O)c(C=O)c1O [PLP]
UV-visible absorption of Schiff base (420 nm), NaBH4 reduction (ScAlt2): both, ScAlt1 and ScAlt2 have PLP attached through a Schiff base | UV-visible absorption of Schiff base (330-335 and 420 nm), NaBH4 reduction (ScAlt1 [3]): both, ScAlt1 and ScAlt2 have PLP attached through a Schiff base

Molecule: N[C@@H](CC(=O)O)C(=O)O [aspartic acid]
UV-visible shift, external Schiff base (325 nm) (ScAlt1 [1]; [7]): ScAlt1 could form external Schiff base with glutamate, serine, cysteine, histidine, and aspartic acid

Molecule: N[C@@H](CO)C(=O)O [serine]
UV-visible shift, external Schiff base (325 nm) (ScAlt1 [1]; 1 μl of 23 mM stock added to 10 μl protein): ScAlt1 could form external Schiff base with glutamate, serine, cysteine, histidine, and aspartic acid

B1: ScAlt1 (Saccharomyces cerevisiae S288C) (protein)
chain: QSSLNDLRHLNRFPHHTLKTSNNEFYPAEQLTLEDVNENVLKAKYAVRGAIPMRAEELKAQLEKDPQSLPFDRIINANIGNPQQLQQKPLTYYRQVLSLLQYPELLNQNEQQLVDSKLFKLDAIKRAKSLMEDIGGSVGAYSSSQGVEGIRKSVAEFITKRDEGEISYPEDIFLTAGASAAVNYLLSIFCRGPETGVLIPIPQYPLYTATLALNNSQALPYYLDENSGWSTNPEEIETVVKEAIQNEIKPTVLVVINPGNPTGAVLSPESIAQIFEVAAKYGTVVIADEVYQENIFPGTKFHSMKKILRHLQREHPGKFDNVQLASLHSTSKGVSGECGQRGGYMELTGFSHEMRQVILKLASISLCPVVTGQALVDLMVRPPVEGEESFESDQAERNSIHEKLITRAMTLYETFNSLEGIECQKPQGAMYLFPKIDLPFKAVQEARHLELTPDEFYCKKLLESTGICTVPGSGFGQEPGTYHLRTTFLAPGLEWIKKWESFHKEFFDQYRD
notes: N-terminal His-tag (pET-28a), E. coli Rosetta 2 (DE3); theoretical monomer 61 kDa, SEC 147 kDa, dimer
Km (purified protein [4]): 10.39 ( ± 1.12) mM | kcat (purified protein [4]): 698 s⁻¹ | Km (purified protein [5]): 0.67 ( ± 0.06) mM | kcat (purified protein [5]): 698 s⁻¹

B2: ScAlt2 (Saccharomyces cerevisiae presumed alanine transaminase paralogue), recombinant (enzyme, S. cerevisiae, UniProt P52892 1-507, looked up)
chain: MTMTHQQDLKGVFTAKDLDFKPAGKITKKDLNTGVTKAEYAVRGAIPTRADELKEELKKNPEVLPFDDIINANIGNPQQLDQKPLTFTRQVLAILEYPEILRVGHNELASLNLFSRDALERAERLLNDIGGSIGAYSHSQGVPGIRQTVADFITRRDGGEPATPEDIYLTTGASSAATSLLSLLCKDSQTGLLIPIPQYPLYTASASLFNAQVLPYYLDEESNWSTNSDEIEKVVQDALKKQIRPSVLIVINPGNPTGAVLSEETIARICLIAAKYGITIISDEVYQENIFNDVKFHSMKKVLRKLQHLYPGKFDNVQLASLHSISKGFMDECGQRGGYMEIIGFSQEIRDALFKLMSISICSVVTGQAVVDLMVKPPQPGDESYEQDHDERLKIFHEMRTRANLLYETFKELEGIECQKPQGAMYLFPRLVLPKKALCESERLGIEPDEFYCTSLLESTGICTVPGSGFGQRPGTYHVRTTFLAPGTKWIQDWKEFHQDFFSKYRN
notes: ScAlt2 of S. cerevisiae, amplified from genomic DNA of strain CLA1; the forward primer starts at ATGACAATGACACACCAACAGG (MTMTHQQ) and the reverse primer holds the stop codon (TCA ATT ACG ATA ...); theoretical monomer mass printed as 58 kDa; source: E. coli Rosetta 2 (DE3), pET-28a(+), purified (Ni-NTA)
stoichiometry N [6]: 2

B3: ScAlt1 (Saccharomyces cerevisiae alanine transaminase), recombinant, without the mitochondrial localization sequence (enzyme, S. cerevisiae, UniProt P52893 65-592, looked up)
chain: SSSWIVAQNHRRSLSGQSSLNDLRHLNRFPHHTLKTSNNEFYPAEQLTLEDVNENVLKAKYAVRGAIPMRAEELKAQLEKDPQSLPFDRIINANIGNPQQLQQKPLTYYRQVLSLLQYPELLNQNEQQLVDSKLFKLDAIKRAKSLMEDIGGSVGAYSSSQGVEGIRKSVAEFITKRDEGEISYPEDIFLTAGASAAVNYLLSIFCRGPETGVLIPIPQYPLYTATLALNNSQALPYYLDENSGWSTNPEEIETVVKEAIQNEIKPTVLVVINPGNPTGAVLSPESIAQIFEVAAKYGTVVIADEVYQENIFPGTKFHSMKKILRHLQREHPGKFDNVQLASLHSTSKGVSGECGQRGGYMELTGFSHEMRQVILKLASISLCPVVTGQALVDLMVRPPVEGEESFESDQAERNSIHEKLITRAMTLYETFNSLEGIECQKPQGAMYLFPKIDLPFKAVQEARHLELTPDEFYCKKLLESTGICTVPGSGFGQEPGTYHLRTTFLAPGLEWIKKWESFHKEFFDQYRD
notes: ScAlt1, alanine transaminase of S. cerevisiae, amplified from genomic DNA of strain CLA1; no residue limits are stated; the forward primer (CATATGCAATCTTCGCTAAACGACCTGC) places the start at Met-QSSLNDL; the reverse primer appears to lie after the stop codon; theoretical monomer mass printed as 61 kDa; The start of the construct can be worked out from the printed forward primer …
stoichiometry N [6]: 2
